Measurements from PMC9775191, “A Subset Screen of the Compounds Australia Scaffold Library Identifies 7-Acylaminodibenzoxazepinones as Potent and Selective Hits for Anti-Giardia Drug Discovery” (Biomedicines, 2022).

Test system: G. duodenalis BRIS/91/HEPU/1279
Assay: Primary Giardia screen at 10 µM (live-cell imaging, automated counting)
Format: cell-based, Giardia duodenalis
Conditions: for % Inhibition n=1 48h / % Inhibition n=1 24h: first singlicate assay; for % Inhibition n=2 24h / % Inhibition n=2 48h: re-assessment
Method: Each compound was assessed in singlicate, at a final concentration of 10 μM (0.4 μL of a 5 mM stock; diluted to a final volume of 200 μL in culture medium; 0.2% DMSO). […] Plates were incubated in sealed chambers filled with 3% O2, 5% CO2 in N2 and growth was assessed at 24 and 48 h using live cell imaging and automated counting as previously described. Growth inhibition was calculated by subtracting media only background counts and determining percentage growth relative to vehicle (0.2% DMSO) controls. The reliability of these assays was assessed by calculating Z’ factors for each plate as previously described.

| SMILES | % Inhibition n=1 48h [%] | also measured |
| --- | --- | --- |
| COc1ccc(C2NC(C(=O)O)Cc3c2[nH]c2ccccc32)c(OC)c1 (centres unmarked) [SN00783957] | 5.0 | – |
| Cc1ccsc1CCNC(=O)c1cnn2c(=O)c3c(n(C)c12)CCN(Cc1ccccc1)C3 [SN00788935] | 17.0 | – |
| CC(NC(=O)c1cc2ccncc2[nH]1)c1ccccc1 (centres unmarked) [SN00798186] | 4.2 | – |
| Cc1cccc(NC(=O)C2CCCN(c3c([N+](=O)[O-])c(C)nn3C)C2)n1 (centres unmarked) [SN00775639] | 0.0 | – |
| CC1(C(=O)N2CCCC(CN3CCOCC3)C2)CC1(Cl)Cl (centres unmarked) [SN00782980] | 14.3 | – |
| Cc1onc(-c2ccccc2)c1-c1nnc(CN2CCCN(CC(=O)NC(C)(C)C)CC2)o1 [SN00777957] | 2.0 | – |
| COc1ccc(C2CCCN2C(=O)c2cnn(-c3ccc(C(F)(F)F)cn3)c2C)cc1 (centres unmarked) [SN00774591] | 35.2 | – |
| CCCCN1CCN(C(=O)c2cc3c(=O)n(CC(C)C)c4ccccc4n3n2)CC1 [SN00802291] | 12.0 | – |
| CCOC(=O)c1sc2nc(C)nc(N3CCCCC3C)c2c1C (centres unmarked) [SN00783508] | 0.0 | – |
| Cc1cc2c(cc1S(=O)(=O)NC(C)C)N(C(=O)C1CC1)CC2 [SN00798844] | 15.5 | – |
| COc1ccccc1CNC(=O)CCN1C(=O)c2ccccc2C1=O [SN00807762] | 30.7 | – |
| CCc1nnc(NC(=O)c2ccsc2-n2c(C)ccc2C)s1 [SN00776389] | 11.7 | – |
| CCCCCCNC(=O)Cc1c(C)nc2c(-c3ccccc3)c(C)nn2c1C [SN00785656] | 17.0 | – |
| Cc1nn(C)c(C)c1CC(C)NC(=O)NCC1CN2CCCC2CO1 (centres unmarked) [SN00783221] | 15.6 | – |
| Cc1ccccc1-n1nc(C(=O)N(C)Cc2ccco2)nc1CCc1ccccc1 [SN00802642] | 5.4 | – |
| CCOC(=O)c1cccc(NC(=O)c2cnc(C)nc2C)c1 [SN00790942] | 0.0 | – |
| O=C(NCc1cccc(F)c1)C1CCCN(c2nc3ccccc3n3cccc23)C1 (centres unmarked) [SN00787408] | 0.0 | – |
| C1CNCC2CCCN2C1 (centres unmarked) [SN00781270] | 3.1 | – |
| CCCNC(=O)CN1CCN(c2nc3ccccn3c2[N+](=O)[O-])CC1 [SN00778045] | 31.4 | – |

| SMILES | % Inhibition n=1 48h [%] | also measured |
| --- | --- | --- |
| Cc1cccc(-c2nc(-c3ccc(NS(C)(=O)=O)cc3)no2)c1 [SN00795250] | 9.2 | – |
| Cc1cccc(NC(=O)CN2CC(c3ccccc3)CC2=O)c1 (centres unmarked) [SN00784702] | 10.4 | – |
| COc1ccc(C2=Nc3ccccc3N(Cc3cccc(F)c3)C(=O)C2)cc1 [SN00791806] | 50.8 | Average % Inhibition 24h: 8.7%; % Inhibition n=1 24h: 17.4%; % Inhibition n=2 24h: 0.0%; Average % Inhibition 48h: 30.2%; % Inhibition n=2 48h: 9.6% |
| O=C(c1cc(=O)[nH]c2ccccc12)N1CCN(Cc2ccc3c(c2)OCO3)CC1 [SN00774920] | 0.0 | – |
| Cc1cc(NC(=O)C2CCN(S(=O)(=O)c3c(C)n[nH]c3C)CC2)ccc1Br [SN00784824] | 11.8 | – |
| CCOC(=O)CC(=O)Nc1ccc(-c2onc3c2CCc2cc(OC)ccc2-3)cc1 [SN00802675] | 5.3 | – |
| Cc1ccc(NC(=O)c2ccc(-c3noc(C4CCCN(C(=O)c5ccccc5)C4)n3)cc2)cc1 (centres unmarked) [SN00797407] | 5.6 | – |
| CCCNS(=O)(=O)c1cc(-c2nc(-c3cccc(Cl)c3)cs2)n(C)c1C [SN00795169] | 47.2 | Average % Inhibition 24h: 21.9%; % Inhibition n=1 24h: 31.8%; % Inhibition n=2 24h: 12.0%; Average % Inhibition 48h: 32.8%; % Inhibition n=2 48h: 18.5% |
| Cc1ccc(C)c(NC(=O)N2CCC(c3c[nH]c4ncccc34)CC2)c1 [SN00780701] | 0.0 | – |
| Cc1cc(C2CCCN2Cc2cc(-c3ccco3)on2)on1 (centres unmarked) [SN00777724] | 35.3 | – |
| Cc1c(CN(C)C(=O)c2cc3nc(-c4cccs4)cc(C(F)(F)F)n3n2)cnn1C [SN00783696] | 0.0 | – |
| c1ccc(-c2nnc(CN3CCn4c(nnc4C4CC4)C3)o2)cc1 [SN00773167] | 0.0 | – |
| O=C(Cc1ccccc1F)N1CCC(Nc2cccnc2)C1 (centres unmarked) [SN00801060] | 18.5 | – |
| CC(C)Cn1nc(C(=O)N2CCCCC2c2nc3ccccc3s2)c2ccccc2c1=O (centres unmarked) [SN00774515] | 2.8 | – |
| CC1CCN(c2nc(C(=O)NCCc3ccncc3)nc3c2cnn3C)CC1 [SN00800416] | 9.4 | – |
| Cn1nc(C(=O)NCc2ccc3c(c2)OCO3)c2c1CCN(C(=O)C1CCCC1)C2 [SN00789838] | 7.0 | – |
| CN(C)CCn1c(=O)c2[nH]cnc2n(C)c1=O [SN00785782] | 13.4 | – |
| Cc1ccc(Cn2nnc3c(=O)n(Cc4nc(-c5ccccc5)no4)cnc32)cc1 [SN00790594] | 2.1 | – |
